Where two headings read alike, the source gives them in different places.
Key:
non-expressing oocytes [1] = assay: cells; type: cell-based, Xenopus laevis; details: Xenopus laevis, total [3H]CQ transport; for inhibition at 500 µM: [test solute] = 0.5 mM; for inhibition at 1000 µM: [test solute] = 1 mM; for inhibition at 2000 µM: [test solute] = 2 mM
How it was run: (§1)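 ND96, pH 5.5, 1.5 h, 27.5 °C; uptake direction acidic outside → oocyte cytosol, mimicking efflux from digestive vacuole. Ice-cold wash stop, 10% SDS lysis, scintillation counting. Ten oocytes/treatment, ≥4 independent experiments.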

PfCRT^3D7 [2] = target: T1, PfCRT^3D7 (Plasmodium falciparum, UniProt Q8IBZ9); assay: cell-based; type: cell-based; details: total [3H]CQ transport; for inhibition at 500 µM: [test solute] = 0.5 mM; for inhibition at 1000 µM: [test solute] = 1 mM; for inhibition at 2000 µM: [test solute] = 2 mM
How it was run: as §1

PfCRT^Dd2 [3] = target: T2, PfCRT^Dd2 (Plasmodium falciparum, UniProt Q9N623, A220S/I356T/K76T/M74I/N326S/N75E/Q271E/R371I); assay: [3H]CQ uptake into Xenopus oocytes, cis-inhibition by unlabelled solute; type: cell-based
How it was run: as §1

PfCRT^Ecu1110 [4] = target: T3, PfCRT^Ecu1110 (Plasmodium falciparum, UniProt Q9N623, A220S/I356L/K76T/N326D); assay: as above; type: cell-based
How it was run: as §1

non-expressing oocytes [5] = type: cell-based, Xenopus laevis; details: total [3H]CQ transport; for Uptake of [3H]CQ (% non-expressing oocyte control), trans-stimulation: non-expressing oocytes, normalised to the oocyte type control; for Uptake of [3H]CQ (% PfCRTDd2 control), trans-stimulation, non-expressing oocytes: mean ± SEM, SEM
How it was run: (§2)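 Oocytes (ten per treatment, ≥4 independent frogs/days) were preloaded by injecting VF-6 in 25 nL ND96 at pH 5.0, 5.5, 6.0 or 7.0, or Na^+-free choline buffer, then uptake run 1.5 h, 27.5 °C, ND96 pH 5.5 by default. Internal concentrations assumed ~400 nL oocyte volume.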

PfCRT^3D7 [6] = target: T1, PfCRT^3D7; assay: cell-based; type: cell-based
How it was run: as §2

PfCRT^Dd2 [7] = target: T2, PfCRT^Dd2; assay: cell-based; type: cell-based; details: […]; for activity at 45000 µM: [test solute]i = 45 mM (30 mM for some solutes due to solubility)
How it was run: as §2

PfCRT^Ecu1110 [8] = target: T3, PfCRT^Ecu1110; assay: cell-based; type: cell-based; details: […]
How it was run: as §2

PfNT1 = target: T4, PfNT1 (Plasmodium falciparum, UniProt Q8IDM6); assay: cell-based; type: cell-based; details: for activity at 5000 µM: total [3H]CQ transport
T4 construct: expressed in transfected cells; host or cells: Xenopus laevis oocytes (stage V-VI), cRNA-injected
How it was run: as §2

PfCRT [9] = assay: Influx of VF-6 via PfCRT into the oocyte, solutes tested as potential co-substrates; type: cell-based, Plasmodium falciparum; set-up: key: X: Compounds that have been tested as potential co-substrates but are not required for influx of VF-6 via PfCRT into the oocyte; details: X marks the solute
PfCRT [10] = assay: Potential co-substrates tested for influx of VF-6 via PfCRT into the oocyte; type: cell-based, Plasmodium falciparum; set-up: key: X: Compounds that have been tested as potential co-substrates but are not required for influx of VF-6 via PfCRT into the oocyte
[11] = Oocyte, mean ± SEM, SEM, read-out: Uptake of [3H]CQ (% PfCRTDd2 control), cis-inhibition, non-expressing oocytes
[12] = non-expressing oocytes, normalised to the oocyte type control, read-out: Uptake of [3H]CQ (% non-expressing oocyte control), cis-inhibition
[13] = PfCRT3D7 oocytes, normalised to the oocyte type control, read-out: Uptake of [3H]CQ (% PfCRT3D7 control), cis-inhibition
[14] = mean ± SEM, SEM, read-out: Uptake of [3H]CQ (% PfCRTDd2 control), cis-inhibition, PfCRT3D7
[15] = read-out: PfCRT-mediated [3H]CQ transport, cis-inhibition (% PfCRTDd2 control)
[16] = read-out: Uptake of [3H]CQ (% PfCRTDd2 control), cis-inhibition, PfCRTDd2, SEM
[17] = read-out: PfCRT-mediated [3H]CQ transport, cis-inhibition (% PfCRTEcu1110 control)
[18] = read-out: Uptake of [3H]CQ (% PfCRTDd2 control), cis-inhibition, PfCRTEcu1110, SEM
[19] = read-out: Uptake of [3H]CQ (% PfCRTEcu1110 control), cis-inhibition
[20] = read-out: [3H]CQ transport (% PfCRTEcu1110 control), cis-inhibition, PfCRTEcu1110, SEM

T1 sequence (Q8IBZ9 59-398): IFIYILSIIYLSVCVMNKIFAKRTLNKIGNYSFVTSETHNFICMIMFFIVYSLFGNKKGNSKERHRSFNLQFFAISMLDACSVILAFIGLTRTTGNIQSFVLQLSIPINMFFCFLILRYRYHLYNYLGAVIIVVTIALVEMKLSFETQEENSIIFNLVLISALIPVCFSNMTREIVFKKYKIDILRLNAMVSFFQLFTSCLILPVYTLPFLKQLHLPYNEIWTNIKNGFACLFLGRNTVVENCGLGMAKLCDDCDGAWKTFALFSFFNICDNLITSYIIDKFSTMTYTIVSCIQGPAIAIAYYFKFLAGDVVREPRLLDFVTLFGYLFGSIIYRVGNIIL
T4 sequence (Q8IDM6 whole entry): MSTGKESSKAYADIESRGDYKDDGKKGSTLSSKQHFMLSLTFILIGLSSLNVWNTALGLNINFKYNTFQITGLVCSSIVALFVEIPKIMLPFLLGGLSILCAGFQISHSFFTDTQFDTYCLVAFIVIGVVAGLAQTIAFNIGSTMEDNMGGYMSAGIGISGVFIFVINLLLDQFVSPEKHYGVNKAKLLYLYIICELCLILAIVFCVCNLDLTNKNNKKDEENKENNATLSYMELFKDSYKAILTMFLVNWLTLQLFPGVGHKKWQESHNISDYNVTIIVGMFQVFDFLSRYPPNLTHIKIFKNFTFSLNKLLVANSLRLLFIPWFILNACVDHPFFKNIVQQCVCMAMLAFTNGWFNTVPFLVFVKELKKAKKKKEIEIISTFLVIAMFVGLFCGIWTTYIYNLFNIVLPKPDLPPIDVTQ
T3 sequence (Q9N623 whole entry A220S/I356L/K76T/N326D): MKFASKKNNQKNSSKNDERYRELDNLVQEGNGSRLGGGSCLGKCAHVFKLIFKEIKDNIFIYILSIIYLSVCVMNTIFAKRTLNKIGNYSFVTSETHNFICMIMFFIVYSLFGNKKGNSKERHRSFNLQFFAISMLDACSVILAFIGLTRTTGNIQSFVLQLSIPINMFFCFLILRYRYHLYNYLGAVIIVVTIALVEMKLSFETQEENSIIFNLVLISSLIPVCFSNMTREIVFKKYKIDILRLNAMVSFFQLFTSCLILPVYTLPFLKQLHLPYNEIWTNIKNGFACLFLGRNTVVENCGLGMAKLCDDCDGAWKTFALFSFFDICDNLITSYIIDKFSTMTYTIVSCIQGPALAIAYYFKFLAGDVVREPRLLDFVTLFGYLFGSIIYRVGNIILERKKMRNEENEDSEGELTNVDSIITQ
T2 sequence (Q9N623 whole entry A220S/I356T/K76T/M74I/N326S/N75E/Q271E/R371I): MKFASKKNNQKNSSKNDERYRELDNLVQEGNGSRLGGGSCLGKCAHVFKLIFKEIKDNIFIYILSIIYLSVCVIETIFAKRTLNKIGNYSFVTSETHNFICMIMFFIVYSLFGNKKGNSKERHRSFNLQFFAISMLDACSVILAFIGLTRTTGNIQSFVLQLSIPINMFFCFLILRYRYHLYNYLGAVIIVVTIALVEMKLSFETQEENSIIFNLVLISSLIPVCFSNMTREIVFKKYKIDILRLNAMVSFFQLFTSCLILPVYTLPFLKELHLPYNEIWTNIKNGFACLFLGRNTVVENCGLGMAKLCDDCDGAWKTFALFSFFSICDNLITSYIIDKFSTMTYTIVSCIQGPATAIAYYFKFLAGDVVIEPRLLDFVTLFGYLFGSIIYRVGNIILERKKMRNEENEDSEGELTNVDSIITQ

`CC[C@H](C)[C@H](N)C(=O)O` [L-isoleucine] was tested, and the inhibition at 500 µM (non-expressing oocytes [1]; [11]) was 2.7 ± 0.08%, the inhibition at 1000 µM (non-expressing oocytes [1]; [11]) was 3.3 ± 0.03% and the inhibition at 2000 µM (non-expressing oocytes [1]; [11]) was 2.4 ± 0.07%. It also gave an inhibition at 500 µM (non-expressing oocytes [1]; [12]) of 94 ± 7.5%, an inhibition at 1000 µM (non-expressing oocytes [1]; [12]) of 100 ± 4.5% and an inhibition at 2000 µM (non-expressing oocytes [1]; [12]) of 101 ± 3.2%. The inhibition at 500 µM (PfCRT^3D7 [2]; [13]) was 99 ± 4.7%, the inhibition at 1000 µM (PfCRT^3D7 [2]; [13]) was 98 ± 5.7% and the inhibition at 2000 µM (PfCRT^3D7 [2]; [13]) was 102 ± 4.7%. The inhibition at 500 µM (PfCRT^3D7 [2]; [14]) was 3.1 ± 0.07%, the inhibition at 1000 µM (PfCRT^3D7 [2]; [14]) was 2.8 ± 0.04% and the inhibition at 2000 µM (PfCRT^3D7 [2]; [14]) was 2.8 ± 0.02%. For the same compound, the inhibition at 500 µM (PfCRT^Dd2 [3]; [15]) was 95 ± 5.1%, the inhibition at 2000 µM (PfCRT^Dd2 [3]; [15]) was 96 ± 3.7% and the inhibition at 500 µM (PfCRT^Dd2 [3]; [16]) was 97 ± 4.9%. The inhibition at 1000 µM (PfCRT^Dd2 [3]; [16]) was 100 ± 6.5%, the inhibition at 2000 µM (PfCRT^Dd2 [3]; [16]) was 98 ± 6.2% and the inhibition at 500 µM (PfCRT^Ecu1110 [4]; [17]) was 93 ± 5.9%. For the same compound, the inhibition at 1000 µM (PfCRT^Ecu1110 [4]; [17]) was 98 ± 4.1%, the inhibition at 2000 µM (PfCRT^Ecu1110 [4]; [17]) was 98 ± 5.2% and the inhibition at 500 µM (PfCRT^Ecu1110 [4]; [18]) was 31 ± 1.7%. It also gave an inhibition at 1000 µM (PfCRT^Ecu1110 [4]; [18]) of 33 ± 1.8%, an inhibition at 2000 µM (PfCRT^Ecu1110 [4]; [18]) of 33 ± 1.5% and an inhibition at 500 µM (PfCRT^Ecu1110 [4]; [19]) of 96 ± 6.9%. For the same compound, the inhibition at 1000 µM (PfCRT^Ecu1110 [4]; [19]) was 100 ± 6.9%, the inhibition at 2000 µM (PfCRT^Ecu1110 [4]; [19]) was 101 ± 9.5% and the inhibition at 500 µM (PfCRT^Ecu1110 [4]; [20]) was 28 ± 0.3%. For the same compound, the inhibition at 1000 µM (PfCRT^Ecu1110 [4]; [20]) was 30 ± 0.6%, the inhibition at 2000 µM (PfCRT^Ecu1110 [4]; [20]) was 30 ± 0.5% and the “Uptake of [3H]CQ (% non-expressing oocyte control), trans-stimulation” value (non-expressing oocytes [5]; [test solute]i = 5 mM) was 97 ± 1.3 % non-expressing oocyte control. For the same compound, the “Uptake of [3H]CQ (% non-expressing oocyte control), trans-stimulation” value (non-expressing oocytes [5]; [test solute]i = 45 mM (30 mM for some solutes due to solubility)) was 100 ± 2.7 % non-expressing oocyte control, the “Uptake of [3H]CQ (% PfCRTDd2 control), trans-stimulation, non-expressing oocytes” value (non-expressing oocytes [5]; [test solute]i = 5 mM (intracellular)) was 3.2 ± 0.06 % PfCRTDd2 control and the “Uptake of [3H]CQ (% PfCRTDd2 control), trans-stimulation, non-expressing oocytes” value (non-expressing oocytes [5]; [test solute]i = 45 mM (intracellular; 30 mM for some solutes due to solubility)) was 2.5 ± 0.05 % PfCRTDd2 control. The activity at 5000 µM (PfCRT^3D7 [6]; PfCRT3D7 oocytes, [test solute]i = 5 mM, total [3H]CQ transport, normalised to the oocyte type control, read-out: Uptake of [3H]CQ (% PfCRT3D7 control), trans-stimulation) was 100 ± 3.6%, the “[3H]CQ transport (% PfCRT3D7 control), trans-stimulation, PfCRT3D7” value (PfCRT^3D7 [6]; SEM) was 0.3 ± 0.02 % PfCRT3D7 control and the activity at 5000 µM (PfCRT^3D7 [6]; [test solute]i = 5 mM (intracellular), PfCRT3D7 oocytes, normalised to oocyte type control, read-out: PfCRT-mediated [3H]CQ transport, trans-stimulation (% PfCRT3D7 control)) was 98 ± 4.1%. It also gave an activity at 45000 µM (PfCRT^3D7 [6]; SEM, read-out: Uptake of [3H]CQ (% PfCRTDd2 control), trans-stimulation, PfCRT3D7) of 3.3 ± 0.01%, an activity at 45000 µM (PfCRT^3D7 [6]; read-out: PfCRT-mediated [3H]CQ transport, trans-stimulation (% PfCRT3D7 control)) of 96 ± 3.5% and an activity at 45000 µM (PfCRT^3D7 [6]; read-out: Uptake of [3H]CQ (% PfCRT3D7 control), trans-stimulation) of 98 ± 4.3%. It also gave an activity at 5000 µM (PfCRT^3D7 [6]; total [3H]CQ transport, [test solute]i = 5 mM (intracellular), mean ± SEM, SEM, read-out: Uptake of [3H]CQ (% PfCRTDd2 control), trans-stimulation, PfCRT3D7) of 3.3 ± 0.02%, an activity at 5000 µM (PfCRT^Dd2 [7]; pH 5.5, read-out: PfCRT-mediated [3H]CQ transport, trans-stimulation (% PfCRTDd2 control), [test solute]i = 5 mM (intracellular), PfCRTDd2 oocytes, normalised to oocyte type control) of 94 ± 5.1% and an activity at 5000 µM (PfCRT^Dd2 [7]; pH 5.5, read-out: Uptake of [3H]CQ (% PfCRTDd2 control), trans-stimulation, PfCRTDd2, total [3H]CQ transport, [test solute]i = 5 mM (intracellular), mean ± SEM, SEM) of 96 ± 4.4%. For the same compound, the activity at 5000 µM (PfCRT^Dd2 [7]; pH 5.5, read-out: Uptake of [3H]CQ (% PfCRTDd2 control), trans-stimulation, PfCRTDd2 oocytes, [test solute]i = 5 mM, total [3H]CQ transport, normalised to the oocyte type control) was 96 ± 4.4%, the activity at 45000 µM (PfCRT^Dd2 [7]; pH 5.5, read-out: Uptake of [3H]CQ (% PfCRTDd2 control), trans-stimulation, PfCRTDd2 oocytes, total [3H]CQ transport, normalised to the oocyte type control) was 100 ± 2.2% and the activity at 5000 µM (PfCRT^Dd2 [7]; pH 5.5, read-out: [3H]CQ transport (% PfCRTDd2 control), trans-stimulation, PfCRTDd2, trans-stimulation, [test solute]i = 5 mM (injected), PfCRT-mediated component (background subtracted), mean ± SEM, SEM) was 94 ± 5.1%. For the same compound, the activity at 45000 µM (PfCRT^Dd2 [7]; pH 5.5, read-out: [3H]CQ transport (% PfCRTDd2 control), trans-stimulation, PfCRTDd2, trans-stimulation, PfCRT-mediated component (background subtracted), mean ± SEM, SEM) was 98 ± 3.6%, the activity at 5000 µM (PfCRT^Ecu1110 [8]; pH 5.5, read-out: PfCRT-mediated [3H]CQ transport, trans-stimulation (% PfCRTEcu1110 control), [test solute]i = 5 mM (intracellular), PfCRTEcu1110 oocytes, normalised to oocyte type control) was 97 ± 2.1% and the activity at 5000 µM (PfCRT^Ecu1110 [8]; pH 5.5, read-out: Uptake of [3H]CQ (% PfCRTEcu1110 control), trans-stimulation, PfCRTEcu1110 oocytes, [test solute]i = 5 mM, total [3H]CQ transport, normalised to the oocyte type control) was 99 ± 3.5%. It also gave an activity at 45000 µM (PfCRT^Ecu1110 [8]; pH 5.5, read-out: Uptake of [3H]CQ (% PfCRTEcu1110 control), trans-stimulation, PfCRTEcu1110 oocytes, [test solute]i = 45 mM (30 mM for some solutes due to solubility), total [3H]CQ transport, normalised to the oocyte type control) of 99 ± 3.2%, an activity at 5000 µM (PfCRT^Ecu1110 [8]; read-out: Uptake of [3H]CQ (% PfCRTDd2 control), trans-stimulation, PfCRTEcu1110, total [3H]CQ transport, [test solute]i = 5 mM (intracellular), mean ± SEM, SEM) of 35 ± 1.5% and an activity at 45000 µM (PfCRT^Ecu1110 [8]; read-out: Uptake of [3H]CQ (% PfCRTDd2 control), trans-stimulation, PfCRTEcu1110, total [3H]CQ transport, [test solute]i = 45 mM (intracellular; 30 mM for some solutes due to solubility), mean ± SEM, SEM) of 35 ± 1.1%. The activity at 5000 µM (PfNT1; PfNT1 oocytes, [test solute]i = 5 mM, normalised to the oocyte type control, read-out: Uptake of [3H]CQ (% PfNT1 control), trans-stimulation) was 98 ± 2.2%, the activity at 45000 µM (PfNT1; SEM, read-out: Uptake of [3H]CQ (% PfCRTDd2 control), trans-stimulation, PfNT1) was 2.2 ± 0.03% and the activity at 45000 µM (PfNT1; read-out: Uptake of [3H]CQ (% PfNT1 control), trans-stimulation) was 100 ± 2.5%. For the same compound, the activity at 5000 µM (PfNT1; [test solute]i = 5 mM (intracellular), mean ± SEM, SEM, read-out: Uptake of [3H]CQ (% PfCRTDd2 control), trans-stimulation, PfNT1) was 3.1 ± 0.02%, the “Compounds that have been tested as potential co-substrates but are not required for influx of VF-6 via PfCRT into the oocyte” value (PfCRT [9]) was “X” and the “Tested as potential co-substrate but not required for influx of VF-6 via PfCRT into the oocyte” value (PfCRT [10]) was “X”.

Reference: PMC7413254 (Nature Communications, 2020)
